Measurements from publication PMC4309560, “Creating Novel Activated Factor XI Inhibitors through Fragment Based Lead Generation and Structure Aided Drug Design” (PLoS ONE, 2015).

Key:
[1] = target: Recombinant human trypsin (Homo sapiens, UniProt P07477); assay: biochemical; conditions: read-out: Trypsin % inhibition at 99 μM
Experimental: (§1) Enzymatic assay. […] Selected compounds were also screened against other serine proteases to evaluate their selectivity profiles.
(§2) Once the compounds were synthesized and characterized, enzymatic assays were performed to evaluate the inhibitory activity of the resulting compounds against FXIa and other serine proteases. […] IC50 values for the compounds were determined using equation: Q= V/(1+([I]/IC50)^n) Q denotes the assay readout, V denotes the uninhibited velocity of the enzyme, [I] denotes the inhibitor concentration, n denotes the slope and IC50 is the inhibitor concentration at V/2.
Trypsin. Recombinant human trypsin was from Polymun, Vienna, Austria.

Human tPA = Human tPA (Homo sapiens, UniProt P00750); assay: biochemical; conditions: read-out: tPA % inhibition at 99 μM
Experimental: as §1, §2
tPa. Human tPA was from Biopool, Umeå, Sweden.

In vivo rat PK = conditions: female, Sprague Dawley, plasma, intravenous; rat in vivo; read-out: Rat CL (in vivo clearance)
Experimental: Two days prior to dosing, female Sprague Dawley rats were prepared by cannulation of the left carotid artery for blood sampling and by cannulation of the right jugular vein for intravenous administration. The catheters were filled with heparin (100 IU/mL), exteriorized at the nape of the neck and sealed. The surgery was performed under isoflurane (Forene®, Abbott) anesthesia. After surgery the rats were housed individually and had free access to food and water. About 16 h prior to dosing the animals were deprived of food, and fasted until 4 h after dosing. The rats had free access to drinking water during the experiment. On the experiment day, the test item formulation was administered orally by gavage or intravenously in the jugular vein. At pre-defined time points, blood samples of about 0.150 mL were withdrawn from the carotid artery up to 24h after dosing. A total of 10 samples were withdrawn. The blood samples were collected in heparinized plastic tubes and centrifuged, within 30 min, for five min at 10 000 g and +4°C. The plasma was transferred to a 96 well plate and stored at -20°C until analysis by LC/MS/MS. The studies were approved by the Göteborg Animal Research Ethical Board.

Human plasmin = target: T1, Human plasmin (Homo sapiens, UniProt P00747); assay: Plasmin chromogenic assay; format: biochemical; conditions: read-out: Plasmin % inhibition at 99 μM
T1 construct: Human plasmin was from Enzyme Research Laboratories, Swansea, UK; purchased Enzyme Research Laboratories, Swansea, UK
Experimental: as §1, §2
(§3) [S] denotes the substrate concentration.
Plasmin. Human plasmin was from Enzyme Research Laboratories, Swansea, UK.

[2] = target: T2, Human recombinant thrombin (Homo sapiens, UniProt P00734); assay: Thrombin (FIIa) chromogenic assay; format: biochemical; conditions: read-out: FIIa % inhibition at 99 μM
T2 construct: Human recombinant thrombin was prepared in house; made in house
Experimental: as §1, §2, §3
Thrombin. Human recombinant thrombin was prepared in house.

rat FXIa = assay: Species selectivity: rat FXIa potency; format: biochemical; conditions: rat vs human FXIa
[3] = test system: FXa, thrombin, trypsin, plasma kallikrein (PKK), FIXa, tissue plasminogen activator (tPA) and plasmin; assay: Serine protease selectivity panel (statements on the whole panel); format: biochemical, human; conditions: relative to FXIa
Experimental: Enzymatic assay. […] Selected compounds were also screened against other serine proteases to evaluate their selectivity profiles. All protease activities were determined by chromogenic assays monitoring the release of para-nitroanilide at 405 nm.
It is important to achieve potent FXIa inhibitors with high selectivity vs. other serine proteases in order to minimize risk for adverse effects, particularly with regard to bleeding, which limits the utility of current antithrombotic drugs, e.g. dabigatran and rivaroxaban. Selectivity data for FXa, thrombin, trypsin, plasma kallikrein (PKK), FIXa, tissue plasminogen activator (tPA) and plasmin were therefore generated and are summarized in Fig. 6. […].
Once the compounds were synthesized and characterized, enzymatic assays were performed to evaluate the inhibitory activity of the resulting compounds against FXIa and other serine proteases. All protease activities were determined by chromogenic assays monitoring the release of para-nitroanilide at 405 nm. IC50 values for the compounds were determined using equation: Q= V/(1+([I]/IC50)^n) Q denotes the assay readout, V denotes the uninhibited velocity of the enzyme, [I] denotes the inhibitor concentration, n denotes the slope and IC50 is the inhibitor concentration at V/2.

[4] = Chromatographic determination of lipophilicity; format: physicochemical; conditions: reversed-phase UPLC, Waters BEH C18 stationary phase, pH 7.4; measured by liquid chromatography, pH7.4
Source text: The chromatographic data was obtained utilizing a Waters Aquity UPLC chromatographic system running a gradient from 5–95% acetonitrile at pH7.4. The stationary phase was a Waters BEH C18 2.1x50 mm. Standardized retention data were obtained by normalization against a set of compounds with precisely determined (octanol/water) logD-values. Lipophilicity values for samples were derived from a corresponding calibration curve.

Caco2 cells = assay: Caco2 permeability; format: in vitro ADME; conditions: measured at pH 6.5
Experimental: A monolayer of Caco2 cells, cultured on semi-permeable polycarbonate surfaces, was used to study the permeability in the apical to basolateral direction. The process was atomized by a robotic Tecan EVO platform (Männerdorf, Switzerland) and 24-transwell plates from Costar (Cambridge, MA, USA). HBSS buffer pH 7.4 was dispensed to the basal side of the monolayer. […] Samples for quantitative analysis by LC/MS/MS were withdrawn before the addition of the test substrate and at 45 and 120 min post addition of the test substrate. During incubation the transwell plates were placed in a shaking incubator at 37°C between sampling. The peak areas were exported to Excel where Papp-values and recoveries were calculated. Twenty-two reference compounds with known human oral bioavailability were used to establish a correlation curve with Papp versus the fraction of the oral dose absorbed (fa).

Human FXa = Human FXa (Homo sapiens, UniProt P00742); assay: biochemical; conditions: read-out: FXa % inhibition at 99 μM
Experimental: as §1, §2

Human FIXa = Human FIXa (Homo sapiens, UniProt P00740); assay: biochemical; conditions: read-out: FIXa % inhibition at 99 μM
Experimental: as §1, §2

T1 sequence (P00747 581-810 limits assumed): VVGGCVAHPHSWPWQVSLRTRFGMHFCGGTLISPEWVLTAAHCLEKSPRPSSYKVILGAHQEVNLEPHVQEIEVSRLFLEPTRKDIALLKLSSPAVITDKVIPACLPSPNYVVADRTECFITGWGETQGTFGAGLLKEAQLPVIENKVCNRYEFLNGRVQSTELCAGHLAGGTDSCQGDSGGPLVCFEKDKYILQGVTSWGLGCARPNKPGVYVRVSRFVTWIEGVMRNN
T1 sequence (P00747 97-580 partner limits assumed): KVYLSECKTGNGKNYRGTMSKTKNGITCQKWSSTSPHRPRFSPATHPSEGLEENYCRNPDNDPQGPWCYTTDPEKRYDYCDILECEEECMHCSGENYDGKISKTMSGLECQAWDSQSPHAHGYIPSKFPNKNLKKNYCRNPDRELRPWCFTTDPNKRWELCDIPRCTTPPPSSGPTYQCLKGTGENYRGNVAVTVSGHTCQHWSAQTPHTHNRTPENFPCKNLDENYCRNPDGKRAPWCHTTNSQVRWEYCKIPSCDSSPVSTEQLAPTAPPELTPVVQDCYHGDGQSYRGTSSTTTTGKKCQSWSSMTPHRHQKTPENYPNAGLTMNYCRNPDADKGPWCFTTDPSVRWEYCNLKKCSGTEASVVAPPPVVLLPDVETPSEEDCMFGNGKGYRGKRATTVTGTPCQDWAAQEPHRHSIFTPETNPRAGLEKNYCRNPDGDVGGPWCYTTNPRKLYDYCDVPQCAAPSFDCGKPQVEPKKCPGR
Sequence of Human FIXa (P00740 227-461 limits assumed): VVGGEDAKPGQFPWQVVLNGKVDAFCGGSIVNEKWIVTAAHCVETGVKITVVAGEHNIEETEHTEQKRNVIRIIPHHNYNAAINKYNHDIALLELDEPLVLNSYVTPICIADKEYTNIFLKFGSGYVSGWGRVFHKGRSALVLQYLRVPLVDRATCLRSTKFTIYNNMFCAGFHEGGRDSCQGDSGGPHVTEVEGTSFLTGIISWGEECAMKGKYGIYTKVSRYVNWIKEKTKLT
Sequence of Human FIXa (P00740 47-191 partner limits assumed): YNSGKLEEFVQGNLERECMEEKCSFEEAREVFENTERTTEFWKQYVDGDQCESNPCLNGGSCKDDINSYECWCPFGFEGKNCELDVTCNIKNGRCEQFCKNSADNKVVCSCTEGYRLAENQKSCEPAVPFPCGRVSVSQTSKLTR
Sequence of Human tPA (P00750 36-562): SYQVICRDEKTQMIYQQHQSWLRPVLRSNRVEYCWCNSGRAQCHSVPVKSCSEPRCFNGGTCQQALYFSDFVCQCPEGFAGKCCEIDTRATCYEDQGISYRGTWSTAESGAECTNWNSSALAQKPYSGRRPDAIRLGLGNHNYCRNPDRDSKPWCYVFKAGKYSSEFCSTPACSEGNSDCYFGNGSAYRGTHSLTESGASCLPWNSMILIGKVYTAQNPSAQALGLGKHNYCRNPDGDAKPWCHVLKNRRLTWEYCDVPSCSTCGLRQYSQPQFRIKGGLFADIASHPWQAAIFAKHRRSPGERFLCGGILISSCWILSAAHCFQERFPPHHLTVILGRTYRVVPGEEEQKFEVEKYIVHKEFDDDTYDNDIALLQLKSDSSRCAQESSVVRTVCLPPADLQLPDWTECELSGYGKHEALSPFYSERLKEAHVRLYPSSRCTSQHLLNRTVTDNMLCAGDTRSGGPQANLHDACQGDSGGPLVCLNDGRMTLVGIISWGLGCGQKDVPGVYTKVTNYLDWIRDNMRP
Sequence of Human FXa (P00742 235-488 limits assumed): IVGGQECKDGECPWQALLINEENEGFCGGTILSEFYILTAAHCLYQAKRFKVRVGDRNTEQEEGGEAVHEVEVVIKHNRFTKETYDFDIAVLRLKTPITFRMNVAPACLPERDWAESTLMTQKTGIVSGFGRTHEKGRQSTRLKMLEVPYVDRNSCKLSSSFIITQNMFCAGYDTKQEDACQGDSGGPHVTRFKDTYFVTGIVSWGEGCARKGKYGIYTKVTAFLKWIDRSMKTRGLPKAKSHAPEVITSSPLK
Sequence of Human FXa (P00742 41-179 partner limits assumed): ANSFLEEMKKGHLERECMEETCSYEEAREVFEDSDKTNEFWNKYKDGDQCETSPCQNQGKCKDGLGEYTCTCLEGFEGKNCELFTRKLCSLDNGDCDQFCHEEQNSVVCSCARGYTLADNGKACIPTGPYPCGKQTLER

O=C(N[C@@H](Cc1ccccc1)C(=O)NCc1cc(=O)[nH]c2ccc(Cl)cc12)c1ccc2[nH]c(=O)cc(O)c2c1 [Compound 13, (S)-N-(1-{(6-Chloro-2-oxo-1,2-dihydroquinolin-4-yl)methylamino}-1-oxo-3-phenylpropan-2-yl)-4-hydroxy-2-oxo-1,2-dihydroquinoline-6-carboxamide]
inhibition at 99 µM [1]: 12%
inhibition at 99 µM (Human tPA): 2%
clearance (In vivo rat PK): 130 mL/min/kg
inhibition at 99 µM (Human plasmin): 14%
inhibition at 99 µM [2]: 11%
potency against rat FXIa relative to human FXIa (fold less potent) (rat FXIa): about 30000 fold
selectivity vs. all proteases in the panel, except PKK [3]: more than five orders of magnitude selectivity
chromatographic logD [4]: 0.87
Caco2 A to B permeability (Caco2 cells): < 0.28 1·10^-6 cm/s
inhibition at 99 µM (Human FXa): 18%
inhibition at 99 µM (Human FIXa): 2%
